From US11014896B2, “TRPA1 and TRPV4 inhibitors and methods of using the same for organ-specific inflammation and itch” (Duke University, priority 2014, dated 2021)
“Also recorded” adds a separate entry of the source.

Tests used:
[1] = tested on: primary mouse keratinocytes (1° MK); assay: UVB-evoked Ca++ signaling in primary mouse keratinocytes (fluo-4 imaging); assay type: cell-based; conditions: GSK205 20 μM
Protocol: Ca++ imaging of 1° MK was conducted following routine procedures. For UVB stimulation, a customized device was built. The system comprised a printed circuit board for electrical interconnects and mechanical support and an ultraviolet light-emitting diode (UV LED).
The operating wavelength was 295 nm (FIG. 2A), with a full-width half-max of 12 nm. The optical power was 500 mW. The focal point was aimed at the plane of the upper surface of the quartz coverslip, which was used to minimize UV absorption along the optical path towards the cells (FIG. 2A-FIG. 2C). The optical intensity at the focal point was estimated to be 150 mW/mm^2.
(§1) Ca++ imaging of mouse 1° MK in response to chemical activation of TRPV4 was conducted after loading with 2 μM fura2-AM, following a ratiometric Ca2+ imaging protocol with 340/380 nm […] for dual excitation. Ratios of emissions were acquired at 0.5 Hz. ΔR/R0 was determined as the fraction of the increase of a given ratio over baseline ratio, divided by baseline ratio. For stimulation of cells with UVB, where fura-2 was not suitable because of the proximity of stimulation with 340/380 nm and 295 nm, 2 μM fluo4-AM was used instead. Ca++ imaging was carried out at 488 nm excitation, acquisition of emissions at 0.5 Hz, expressed as ΔF/F0. In the custom-built UV optical system, UV LEDs were capped with a ball lens, a transparent optical window in the shape of a hemispherical lens (FIG. 2B). The LED output optical beam focused at 15-20 mm from the lens, with a spot diameter of approximately 1.5-2.0 mm (FIG. 2C). […] The thermal equilibration stage was set for physiological temperature.

TRPV4 [2] = target: T1, TRPV4 (Mus musculus, UniProt Q9EPK8); assay: GSK101-evoked Ca++ transient in 1° MK; assay type: cell-based; conditions: 5 nM GSK101; GSK205 20 μM
T1 construct: endogenous in cells; host or cells: primary mouse epidermal keratinocytes (1° MK), wild type
Protocol: as §1, with “temperature. We confirmed the non-thermal nature of UVB stimulation using the customized 295 nm LED device in a dedicated experiment (FIG. 2D), thus confirming the specific modality of stimulation as UVB.” for “temperature.”

TRPV4 [3] = target: T1, TRPV4; assay: 4α-PDD-evoked Ca++ signaling in 1° MK (fura-2); assay type: cell-based; conditions: fura-2 ratiometric imaging
Protocol: as §1, with “temperature. We confirmed the non-thermal nature of UVB stimulation using the customized 295 nm LED device in a dedicated experiment (FIG. 2D), thus confirming the specific modality of stimulation as UVB.” for “temperature.”

[4] = Nocifensive behavior in response to ET1 footpad injection (von Frey); assay type: in vivo, mouse; conditions: footpad injection of ET1; WT and oil-treated iKO (control) mice
Protocol: ET1 injections: After determining base-line withdrawal thresholds, each animal received an intraplantar injection of 10 μL 100 nM ET-1 plus contralateral vehicle. Thresholds were again evaluated 1 hour after injection.
Hindpaw mechanical withdrawal thresholds were determined by the automated von Frey hair method, using a 0.5 mm diameter stainless steel filament, part of an automated plantar touch stimulator (Ugo Basile, Modena, Italy). Relevant detail included pre-test acclimatization in a quiet room for 30 min, conducting the test at the same time of day and blinded observers. The stimulus was delivered to the hindpaw, automatically discontinued upon withdrawal, and its intensity recorded automatically. 6-8 trials per animal were conducted, with equal exposure of both hindpaws, leading to an average withdrawal threshold. Results are reported as […], which was calculated by subtracting post-treatment from pre-treatment measurements, expressed as % or relative to 1.0.

T1 sequence (Q9EPK8 whole entry): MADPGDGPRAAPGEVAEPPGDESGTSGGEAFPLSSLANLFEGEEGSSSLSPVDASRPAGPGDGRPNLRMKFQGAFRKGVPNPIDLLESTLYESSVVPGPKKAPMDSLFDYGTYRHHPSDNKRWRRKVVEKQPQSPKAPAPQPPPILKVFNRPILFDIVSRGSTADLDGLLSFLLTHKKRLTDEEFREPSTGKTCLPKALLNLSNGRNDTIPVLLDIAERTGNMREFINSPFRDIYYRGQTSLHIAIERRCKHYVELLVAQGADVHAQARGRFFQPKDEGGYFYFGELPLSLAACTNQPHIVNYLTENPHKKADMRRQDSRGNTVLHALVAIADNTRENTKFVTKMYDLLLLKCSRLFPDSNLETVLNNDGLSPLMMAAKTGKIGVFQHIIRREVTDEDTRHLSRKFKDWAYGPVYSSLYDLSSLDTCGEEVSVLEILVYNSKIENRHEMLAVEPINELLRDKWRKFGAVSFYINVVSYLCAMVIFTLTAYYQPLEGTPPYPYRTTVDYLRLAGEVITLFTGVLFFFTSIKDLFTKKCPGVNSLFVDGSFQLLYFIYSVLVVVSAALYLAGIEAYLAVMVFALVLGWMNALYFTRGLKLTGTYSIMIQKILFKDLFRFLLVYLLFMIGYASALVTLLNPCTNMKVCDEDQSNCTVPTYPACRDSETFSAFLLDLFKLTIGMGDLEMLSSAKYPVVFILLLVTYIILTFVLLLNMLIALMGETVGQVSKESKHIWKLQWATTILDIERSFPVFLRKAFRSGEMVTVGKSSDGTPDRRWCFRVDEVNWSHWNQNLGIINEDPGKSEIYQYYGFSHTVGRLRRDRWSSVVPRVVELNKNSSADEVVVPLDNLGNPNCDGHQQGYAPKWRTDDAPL

For “ET1: endothelin-1, cognate peptide ligand of endothelin receptors”, which “UVB-evoked Ca++ signaling (ΔF/F0)” value [1] is on record?
Its value is “significant increase; also recorded: augmentation”.

And the “GSK101-evoked Ca++ transient” value (TRPV4 [2])?
The value was “augmented; also recorded: increase in signal”.

And the “4α-PDD-evoked Ca++ transients on co-application” value (TRPV4 [3])?
Its value is “significant increase in the response”.

What about the “mechanical allodynia / von Frey withdrawal thresholds after ET1 injection” value [4] of the same substance?
Its value is “significantly lowered; also recorded: significant levels of mechanical allodynia”.
